# Assay results from PubChem BioAssay AID1963978 (Molecular Pharmacology Branch, DTP, NCI, 2024).
# Tested on: 616215-338-R-J1-PDC spheroids with HUVEC/MSC, viability
# Assay: Anticancer human tumor 616215-338-R-J1-PDC patient-derived colon adenocarcinoma cell line growth inhibition [PI3K]
# Conditions: for IC50: curve of first compound; for viability, T/C: stronger effect = lower value
# Excerpt: Combinatorial screen of targeted agents with the PI3K inhibitors inavolisib, alpelisib, duvelisib, and copanlisib in multi-cell type tumor spheroids
# A high-throughput screen of multi-cell type tumor spheroids was designed to identify active combinations of targeted small molecules and PI3K pathway inhibitors. Complex spheroids include a stromal component modeled by human endothelial cells (HUVEC) and fibroblasts modeled by human mesenchymal stem cells (MSCs). The concentration ranges selected for each drug and investigational agent were based upon clinically achievable concentrations if the clinical Cmax of the agent was known.
# Compounds. The drugs and investigational agents: inavolisib (NSC800729), alpelisib (NSC765974), duvelisib (NSC772469), copanlisib (NSC816437), ipatasertib (NSC767898), afuresertib (NSC778305), talazoparib (NSC767125), sapanisertib (NSC764658), selumetinib (NSC741078), tovorafenib (DAY101, NSC766906), vemurafenib (NSC761431), ravoxertinib (NSC781343), sotorasib (NSC818433), MRTX1133 (NSC 836407), abemaciclib (NSC 768073), palbociclib (NSC758247), venetoclax (NSC 766270), SY5609 (NSC837396), enzalutamide (NSC755605), and darolutamide (NSC825331), were obtained from the National Cancer Institute (NCI) Developmental Therapeutics Program Chemical Repository. The FDA-approved anticancer drug set is available from the NCI Developmental Therapeutics Program. […] The stock solutions were prepared in dimethyl sulfoxide (DMSO, Sigma-Aldrich, St. Louis, MO, cat. D2650) at 800-fold the tested concentration and stored at -70 degrees C prior to their use. All drugs and investigational agents were tested over a range starting from a high concentration at or near the clinical Cmax and decreasing in half-log increments. If the clinical Cmax for an agent had not been determined, the highest concentration tested was 10 microM.
# Cell Culture. All cells were maintained in an incubator at 37 degrees C and 5% CO2 with 95% humidity. The PDC lines were cultured according to standard operating procedures established by the NCI PDMR (https://pdmr.cancer.gov/sops/default.htm). All PDCs were thawed and cultured in Matrigel-coated flasks prepared with a working solution of 1X Ham's F-12 nutrient mix, without supplementation (Invitrogen, Waltham, MA, cat. 11765054), 100 U/mL penicillin-streptomycin (Invitrogen, cat. 15140122), and 2.5% Matrigel (Corning Inc., Corning, NY, cat. 354248) for the first three passages. The 354836-022-R-J1-PDC, 475296-252-R-J1-PDC, and 997726-040-R-J2-PDC lines were cultured in 6A media, which includes advanced DMEM/F-12 (Thermo Fisher Scientific, cat. 12634028), 10 mM HEPES (Thermo Fisher Scientific, cat. 15630080), 1X GlutaMAX supplement (Thermo Fisher Scientific, cat. 35050061), 0.1 mg/mL primocin (InvivoGen, San Diego, CA, cat. ant-pm-2), 10% defined fetal bovine serum, heat inactivated (HyClone Laboratories Inc., Logan, UT, cat. SH30070.03HI), 50% L-WRN conditioned media (ATCC, cat. CRL-3276), 1.25 mM N-Acetyl-L-cysteine (Sigma-Aldrich, cat. A9165), 10 mM nicotinamide (Sigma-Aldrich, cat. N0636), 1X B-27 supplement (Thermo Fisher Scientific, cat. 17504044), 1X N-2 supplement (Thermo Fisher Scientific, cat. 17502048), and 10 microM Y-27632 dihydrochloride (Tocris Bioscience, Bristol, United Kingdom, cat. 1254). The 624824-186-R-J2-PDC line was cultured in 6C/Colon 1B media, which includes all 6A media components plus 50 ng/mL human EGF recombinant protein (Thermo Fisher Scientific, cat. PHG0311). […]
# [1] = second compound 0.00316 µM, first compound 0.000316 µM
# [2] = second compound 0.00316 µM, first compound 0.001 µM
# [3] = second compound 0.00316 µM, first compound 0.00316 µM
# [4] = second compound 0.00316 µM, first compound 0.01 µM
# [5] = second compound 0.00316 µM, first compound 0.0316 µM
# [6] = second compound 0.00316 µM, first compound 0.1 µM
# [7] = second compound 0.01 µM, first compound 0.000316 µM
# [8] = second compound 0.01 µM, first compound 0.001 µM
# [9] = second compound 0.01 µM, first compound 0.00316 µM
# [10] = second compound 0.01 µM, first compound 0.01 µM
# [11] = second compound 0.01 µM, first compound 0.0316 µM
# [12] = second compound 0.01 µM, first compound 0.1 µM
# [13] = second compound 0.0316 µM, first compound 0.000316 µM
# [14] = second compound 0.0316 µM, first compound 0.001 µM
# [15] = second compound 0.0316 µM, first compound 0.00316 µM
# [16] = second compound 0.0316 µM, first compound 0.01 µM
# [17] = second compound 0.0316 µM, first compound 0.0316 µM
# [18] = second compound 0.0316 µM, first compound 0.1 µM
# [19] = second compound 0.1 µM, first compound 0.000316 µM
# [20] = second compound 0.1 µM, first compound 0.001 µM
# [21] = second compound 0.1 µM, first compound 0.00316 µM
# [22] = second compound 0.1 µM, first compound 0.01 µM
# [23] = second compound 0.1 µM, first compound 0.0316 µM
# [24] = second compound 0.1 µM, first compound 0.1 µM
# [25] = second compound 0.316 µM, first compound 0.000316 µM
# [26] = second compound 0.316 µM, first compound 0.001 µM
# [27] = second compound 0.316 µM, first compound 0.00316 µM
# [28] = second compound 0.316 µM, first compound 0.01 µM
# [29] = second compound 0.316 µM, first compound 0.0316 µM
# [30] = second compound 0.316 µM, first compound 0.1 µM
# [31] = second compound 1 µM, first compound 0.000316 µM
# [32] = second compound 1 µM, first compound 0.001 µM
# [33] = second compound 1 µM, first compound 0.00316 µM
# [34] = second compound 1 µM, first compound 0.01 µM
# [35] = second compound 1 µM, first compound 0.0316 µM
# [36] = second compound 1 µM, first compound 0.1 µM
# 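Further: spheroids exposed to agents for seven days before the viability read.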
smiles,measurement,setting,value
CC(=O)c1c(C)c2cnc(Nc3ccc(N4CCNCC4)cn3)nc2n(C2CCCC2)c1=O + CC(Nc1ccc2c(c1)OCCn1cc(N3C(=O)OCC3C(F)F)nc1-2)C(N)=O,IC50,second compound 0.00316 µM,> 100 nM
same,IC50,second compound 0.01 µM,> 100 nM
same,IC50,second compound 0.0316 µM,> 100 nM
same,IC50,second compound 0.1 µM,> 100 nM
same,IC50,second compound 0.316 µM,> 100 nM
same,IC50,second compound 1 µM,> 100 nM
same,"viability, T/C",[1],87.7%
same,"viability, T/C",[2],104%
same,"viability, T/C",[3],93%
same,"viability, T/C",[4],99.4%
same,"viability, T/C",[5],94.6%
same,"viability, T/C",[6],95.9%
same,"viability, T/C",[7],99.6%
same,"viability, T/C",[8],100%
same,"viability, T/C",[9],107%
same,"viability, T/C",[10],90.2%
same,"viability, T/C",[11],99.5%
same,"viability, T/C",[12],96.5%
same,"viability, T/C",[13],93.2%
same,"viability, T/C",[14],102%
same,"viability, T/C",[15],98.2%
same,"viability, T/C",[16],101%
same,"viability, T/C",[17],91.5%
same,"viability, T/C",[18],107%
same,"viability, T/C",[19],102%
same,"viability, T/C",[20],99%
same,"viability, T/C",[21],92.6%
same,"viability, T/C",[22],112%
same,"viability, T/C",[23],93.8%
same,"viability, T/C",[24],101%
same,"viability, T/C",[25],106%
same,"viability, T/C",[26],112%
same,"viability, T/C",[27],100%
same,"viability, T/C",[28],106%
same,"viability, T/C",[29],98%
same,"viability, T/C",[30],90.2%
same,"viability, T/C",[31],105%
same,"viability, T/C",[32],94.7%
same,"viability, T/C",[33],102%
same,"viability, T/C",[34],105%
same,"viability, T/C",[35],95.1%
same,"viability, T/C",[36],81.7%
CC(C)n1nc(-c2ccc3oc(N)nc3c2)c2c(N)ncnc21 + CC(Nc1ccc2c(c1)OCCn1cc(N3C(=O)OCC3C(F)F)nc1-2)C(N)=O,IC50,second compound 0.00316 µM,> 100 nM
same,IC50,second compound 0.01 µM,> 100 nM
same,IC50,second compound 0.0316 µM,> 100 nM
same,IC50,second compound 0.1 µM,> 100 nM
same,IC50,second compound 0.316 µM,> 100 nM
same,IC50,second compound 1 µM,93.2 nM
same,"viability, T/C",[1],92.2%
same,"viability, T/C",[2],90.5%
same,"viability, T/C",[3],87.2%
same,"viability, T/C",[4],114%
same,"viability, T/C",[5],99.2%
same,"viability, T/C",[6],91.5%
same,"viability, T/C",[7],93%
same,"viability, T/C",[8],102%
same,"viability, T/C",[9],111%
same,"viability, T/C",[10],112%
same,"viability, T/C",[11],113%
same,"viability, T/C",[12],102%
same,"viability, T/C",[13],100%
same,"viability, T/C",[14],95.3%
same,"viability, T/C",[15],103%
same,"viability, T/C",[16],118%
same,"viability, T/C",[17],108%
same,"viability, T/C",[18],82.1%
same,"viability, T/C",[19],110%
same,"viability, T/C",[20],95.3%
same,"viability, T/C",[21],100%
same,"viability, T/C",[22],110%
same,"viability, T/C",[23],117%
same,"viability, T/C",[24],81.5%
same,"viability, T/C",[25],96.6%
same,"viability, T/C",[26],95.8%
same,"viability, T/C",[27],98.8%
same,"viability, T/C",[28],110%
same,"viability, T/C",[29],94.6%
same,"viability, T/C",[30],76.2%
same,"viability, T/C",[31],102%
same,"viability, T/C",[32],118%
same,"viability, T/C",[33],106%
same,"viability, T/C",[34],96.7%
same,"viability, T/C",[35],86.6%
same,"viability, T/C",[36],47.4%
CCCS(=O)(=O)Nc1ccc(F)c(C(=O)c2c[nH]c3ncc(-c4ccc(Cl)cc4)cc23)c1F + CC(Nc1ccc2c(c1)OCCn1cc(N3C(=O)OCC3C(F)F)nc1-2)C(N)=O,IC50,second compound 0.00316 µM,4920 nM
same,IC50,second compound 0.01 µM,4900 nM
same,IC50,second compound 0.0316 µM,4610 nM
same,IC50,second compound 0.1 µM,4470 nM
same,IC50,second compound 0.316 µM,4680 nM
same,IC50,second compound 1 µM,3810 nM
same,"viability, T/C",[5],91.3%
same,"viability, T/C",[6],92.7%
same,"viability, T/C","second compound 0.00316 µM, first compound 0.316 µM",90.8%
same,"viability, T/C","second compound 0.00316 µM, first compound 1 µM",88.8%
same,"viability, T/C","second compound 0.00316 µM, first compound 3.16 µM",79.9%
same,"viability, T/C","second compound 0.00316 µM, first compound 10 µM",2.03%
same,"viability, T/C",[11],97.9%
same,"viability, T/C",[12],93.1%
same,"viability, T/C","second compound 0.01 µM, first compound 0.316 µM",92.2%
same,"viability, T/C","second compound 0.01 µM, first compound 1 µM",92.9%
same,"viability, T/C","second compound 0.01 µM, first compound 3.16 µM",79%
same,"viability, T/C","second compound 0.01 µM, first compound 10 µM",2.65%
same,"viability, T/C",[17],94.6%
same,"viability, T/C",[18],103%
same,"viability, T/C","second compound 0.0316 µM, first compound 0.316 µM",91.3%
same,"viability, T/C","second compound 0.0316 µM, first compound 1 µM",95.4%
same,"viability, T/C","second compound 0.0316 µM, first compound 3.16 µM",72.9%
same,"viability, T/C","second compound 0.0316 µM, first compound 10 µM",3.28%
same,"viability, T/C",[23],107%
same,"viability, T/C",[24],98%
same,"viability, T/C","second compound 0.1 µM, first compound 0.316 µM",92.7%
same,"viability, T/C","second compound 0.1 µM, first compound 1 µM",103%
same,"viability, T/C","second compound 0.1 µM, first compound 3.16 µM",69.9%
same,"viability, T/C","second compound 0.1 µM, first compound 10 µM",3.51%
same,"viability, T/C",[29],103%
same,"viability, T/C",[30],103%
same,"viability, T/C","second compound 0.316 µM, first compound 0.316 µM",109%
same,"viability, T/C","second compound 0.316 µM, first compound 1 µM",102%
same,"viability, T/C","second compound 0.316 µM, first compound 3.16 µM",73.3%
same,"viability, T/C","second compound 0.316 µM, first compound 10 µM",4.84%
same,"viability, T/C",[35],108%
same,"viability, T/C",[36],98.1%
same,"viability, T/C","second compound 1 µM, first compound 0.316 µM",106%
same,"viability, T/C","second compound 1 µM, first compound 1 µM",102%
same,"viability, T/C","second compound 1 µM, first compound 3.16 µM",58.8%
same,"viability, T/C","second compound 1 µM, first compound 10 µM",4.52%
